We go through four compounds from patent publication US20250113825A1 (priority 2022, published 2025).

Assay [1] relates to Pyricularia oryzae causing neck blast. The assay is described as follows: whole plant or invertebrate. Format: in vivo. The settings on record: for Observed efficacy of stobilurin fungicide (%): Table 5(a), Picoxystrobin 67.8 g a.i./ha, Trifloxystrobin 100 g a.i./ha alone.
The test system of assay [2] is rice neck blast fungi. Format: in vivo, Pyricularia oryzae. Particulars: Prothioconazole 120 gai/ha alone or with Azoxystrobin 280, Picoxystrobin 67, Trifloxystrobin 100 gai/ha.

On to `CC(C)OC(=O)C(C(=O)OC(C)C)=C1SCCS1` [Isoprothiolane], for which the “Observed efficacy of isoprothiolane (%)” value in assay [1] (Table 5(b), Isoprothiolane 250 g a.i./ha alone) was 48%.

On to `CO/C=C(/C(=O)OC)c1ccccc1COc1cccc(C(F)(F)F)n1` [Picoxystrobin], for which the “Observed efficacy of stobilurin fungicide (%)” value in assay [1] worked out at 42%.

Turning to `OC(Cc1ccccc1Cl)(Cn1nc[nH]c1=S)C1(Cl)CC1` (centres unmarked) [Prothioconazole, 2-[2-(1-chlorocyclopropyl)-3-(2-chlorophen-yl)-2-hydroxypropyl]-2,4-dihydro-[1,2,4-]-triazole-3-thione], the “% Control (rice neck blast)” value in assay [2] stood at 41.49%. For the same compound, the inhibition at 120 g/ha in assay [1] (Pyricularia oryzae, read-out: Observed efficacy of demethylation inhibitor fungicide (%)) was 49%. `CON=C(C(=O)OC)c1ccccc1CON=C(C)c1cccc(C(F)(F)F)c1` [Trifloxystrobin]: the “Observed efficacy of stobilurin fungicide (%)” value in assay [1] came out at 60%.
